From ChEMBL document CHEMBL5614467, “Structure-Activity Relationship of Truncated 4'-Selenonucleosides: A3 Adenosine Receptor Activity and Binding Selectivity” (ACS Med Chem Lett, 2024)

Key:
[1] = molecular target: T1, Adenosine receptor A2b (Homo sapiens) (UniProt P29275); assay: Displacement of [3H]DPCPX from human adenosine A2B receptor extracted from HEK293 cell membrane assessed as inhibition of [3H]DPCPX binding at 10 uM incubated for 30 mins by microplate beta scintillation counter relative to control; type: cell membranes
T1 sequence (whole entry): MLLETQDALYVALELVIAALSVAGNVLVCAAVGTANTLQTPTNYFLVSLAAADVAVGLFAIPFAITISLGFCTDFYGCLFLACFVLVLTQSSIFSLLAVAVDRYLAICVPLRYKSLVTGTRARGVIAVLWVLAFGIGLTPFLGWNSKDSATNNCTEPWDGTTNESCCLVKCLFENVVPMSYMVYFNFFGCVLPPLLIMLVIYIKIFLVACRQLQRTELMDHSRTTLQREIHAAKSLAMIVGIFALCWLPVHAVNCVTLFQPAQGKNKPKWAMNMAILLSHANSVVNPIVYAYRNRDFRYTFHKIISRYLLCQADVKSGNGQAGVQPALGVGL

[2] = molecular target: Adenosine receptor A2a (Homo sapiens) (UniProt P29274); assay: Displacement of [3H]ZM241385 from human adenosine A2A receptor extracted from human HeLa cell membrane assessed as inhibition of [3H]ZM241385 binding at 10 uM incubated for 30 mins by microplate beta scintillation counter relative to control; type: cell membranes
Adenosine receptor A2a (Homo sapiens), sequence (P29274 whole entry): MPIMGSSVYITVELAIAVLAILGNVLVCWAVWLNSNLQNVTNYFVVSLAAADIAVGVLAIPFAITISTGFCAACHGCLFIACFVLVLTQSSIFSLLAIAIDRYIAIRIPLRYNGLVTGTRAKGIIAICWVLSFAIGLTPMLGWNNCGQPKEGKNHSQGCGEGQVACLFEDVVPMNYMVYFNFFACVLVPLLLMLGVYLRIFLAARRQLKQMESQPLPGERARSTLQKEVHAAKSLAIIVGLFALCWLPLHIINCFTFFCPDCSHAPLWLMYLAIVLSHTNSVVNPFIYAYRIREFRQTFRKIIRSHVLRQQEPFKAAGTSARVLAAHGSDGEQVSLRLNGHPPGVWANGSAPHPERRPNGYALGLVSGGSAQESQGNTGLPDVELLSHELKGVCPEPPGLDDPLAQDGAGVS

[3] = molecular target: T2, Adenosine receptor A1 (Homo sapiens) (UniProt P30542); assay: Displacement of [3H]DPCPX from human adenosine A1 receptor extracted from CHO cell membrane assessed as inhibition of [3H]DPCPX binding at 10 uM incubated for 60 mins by microplate beta scintillation counter relative to control; type: cell membranes
T2 sequence (whole entry): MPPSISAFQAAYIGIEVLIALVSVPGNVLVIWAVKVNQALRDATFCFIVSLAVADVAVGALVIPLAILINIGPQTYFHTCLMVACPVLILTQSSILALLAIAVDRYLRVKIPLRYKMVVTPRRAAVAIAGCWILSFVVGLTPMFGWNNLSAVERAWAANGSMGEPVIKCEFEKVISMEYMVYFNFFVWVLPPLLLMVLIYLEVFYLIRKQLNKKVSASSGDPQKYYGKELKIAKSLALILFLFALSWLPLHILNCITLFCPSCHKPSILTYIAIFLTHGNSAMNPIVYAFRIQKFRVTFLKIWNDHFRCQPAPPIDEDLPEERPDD

Adenosine receptor A3 [4] = molecular target: T3, Adenosine receptor A3 (Homo sapiens, UniProt P0DMS8); assay: Displacement of [3H]NECA from human adenosine A3 receptor extracted from human HeLa cell membrane assessed as inhibition constant incubated for 180 mins by microplate scintillation counter; type: cell membranes
T3 sequence (P0DMS8 whole entry): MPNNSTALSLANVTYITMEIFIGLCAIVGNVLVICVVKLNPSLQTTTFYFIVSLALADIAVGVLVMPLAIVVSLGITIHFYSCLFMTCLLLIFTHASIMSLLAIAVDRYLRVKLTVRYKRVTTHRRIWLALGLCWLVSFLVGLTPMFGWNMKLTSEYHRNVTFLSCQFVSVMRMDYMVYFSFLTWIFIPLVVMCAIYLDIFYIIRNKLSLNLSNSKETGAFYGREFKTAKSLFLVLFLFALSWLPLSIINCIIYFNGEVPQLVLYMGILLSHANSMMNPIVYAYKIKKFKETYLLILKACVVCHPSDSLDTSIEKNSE

[5] = molecular target: T4, Adenosine receptor A3 (Homo sapiens) (UniProt P0DMS8); assay: Antagonist activity at human adenosine A3 receptor expressed in CHO cells assessed as inhibition of cAMP production preincubated for 15 mins followed by NECA addition for 10 mins and measured 5 mins after forskolin addition by enzyme immunoassay relative to control; type: functional, cell-based; conditions: time 30.0 min
T4 sequence (whole entry): T3 sequence (P0DMS8 whole entry)

[6] = molecular target: T4, Adenosine receptor A3 (Homo sapiens); assay: Partial agonist activity at human adenosine A3 receptor expressed in CHO cells assessed as cAMP production preincubated for 15 mins followed by forskolin addition and measured after 5 mins by enzyme immunoassay relative to control; type: functional, cell-based; conditions: filed as partial agonist, time 20.0 min
Adenosine receptor A3 [7] = molecular target: T3, Adenosine receptor A3; assay: Binding affinity to human adenosine A3 receptor assessed as inhibition constant
Adenosine receptor A3 [8] = molecular target: T3, Adenosine receptor A3; assay: Displacement of [125I]iodo-AB-MECA from human adenosine A3 receptor expressed in CHO cells assessed as inhibition constant; type: cell-based

| Structure (SMILES) | inhibition [1] [%] | inhibition [2] [%] | inhibition [3] [%] | Ki (Adenosine receptor A3 [4]) [nM] | inhibition [5] [%] | Activity [6] [%] | Ki (Adenosine receptor A3 [7]) [nM] | Ki (Adenosine receptor A3 [8]) [nM] |
| --- | --- | --- | --- | --- | --- | --- | --- | --- |
| CCNc1ncnc2c1ncn2[C@@H]1[Se]C[C@@H](O)[C@H]1O | 7 | 2 | 25 | 17.5 |  |  |  |  |
| Nc1ncnc2c1ncn2[C@@H]1[Se]C[C@@H](O)[C@H]1O | 25 | 33 | 10 | 238 |  |  |  |  |
| O[C@@H]1[C@H](O)C[Se][C@H]1n1cnc2c(NCc3cccc(Cl)c3)ncnc21 | 30 | 25 | 32 | 32.5 |  |  |  |  |
| O[C@@H]1[C@H](O)C[Se][C@H]1n1cnc2c(NCc3cccc(Cl)c3)nc(Cl)nc21 | 41 | 29 | 66 | 33.2 |  |  |  |  |
| O[C@@H]1[C@H](O)C[Se][C@H]1n1cnc2c(NCc3cccc(Br)c3)ncnc21 | 37 | 28 | 39 | 20.9 |  |  |  |  |
| O[C@@H]1[C@H](O)C[Se][C@H]1n1cnc2c(NC3CC3)nc(Cl)nc21 | 29 | 6 | 26 | 5.7 | 11 | 87 |  |  |
| O[C@@H]1[C@H](O)C[Se][C@H]1n1cnc2c(NC3CCCC3)ncnc21 | 7 | 16 | 39 | 36.6 |  |  |  |  |
| Nc1nc(Cl)nc2c1ncn2[C@@H]1[Se]C[C@@H](O)[C@H]1O | 35 | 12 | 22 | 358 |  |  |  |  |
| O[C@@H]1[C@H](O)C[Se][C@H]1n1cnc2c(NCc3cccc(Br)c3)nc(Cl)nc21 | 43 | 35 | 62 | 38.4 |  |  |  |  |
| CCNc1nc(Cl)nc2c1ncn2[C@@H]1[Se]C[C@@H](O)[C@H]1O | 18 | 3 | 31 | 5.2 |  |  |  |  |
| CNc1ncnc2c1ncn2[C@@H]1[Se]C[C@@H](O)[C@H]1O | 1 | 2 | 7 | 31.1 |  |  |  |  |
| O[C@@H]1[C@H](O)C[Se][C@H]1n1cnc2c(NCc3cccc(F)c3)ncnc21 | 8 | 2 | 12 | 121 |  |  |  |  |
| O[C@@H]1[C@H](O)C[Se][C@H]1n1cnc2c(NCc3cccc(F)c3)nc(Cl)nc21 | 22 | 7 | 23 | 97.1 |  |  |  |  |
| CNC(=O)C1O[C@@H](n2cnc3c(Nc4cccc(I)c4)nc(Cl)nc32)[C@H](O)[C@@H]1O (stereo partly specified) |  |  |  |  |  |  | 1.4 |  |
| CNC(=O)C1S[C@@H](n2cnc3c(Nc4cccc(I)c4)nc(Cl)nc32)[C@H](O)[C@@H]1O (stereo partly specified) |  |  |  |  |  |  |  | 0.38 |
| O[C@@H]1[C@H](O)C[Se][C@H]1n1cnc2c(NCc3cccc(I)c3)ncnc21 | 20 | 19 | 25 | 43.2 |  |  |  |  |
| O[C@@H]1[C@H](O)C[Se][C@H]1n1cnc2c(NC3CC3)ncnc21 | 15 | 9 | 20 | 13.6 |  |  |  |  |
| CNc1nc(Cl)nc2c1ncn2[C@@H]1[Se]C[C@@H](O)[C@H]1O | 28 | 3 | 14 | 25.2 |  |  |  |  |
| O[C@@H]1[C@H](O)C[Se][C@H]1n1cnc2c(NCc3cccc(I)c3)nc(Cl)nc21 | 67 | 24 | 57 | 109 |  |  |  |  |
| O[C@@H]1[C@H](O)C[Se][C@H]1n1cnc2c(NC3CCCC3)nc(Cl)nc21 | 37 | 13 | 54 | 16.9 |  |  |  |  |
